Laboratory results as given in patent US10513523B2, “Imidazopyrazines and pyrazolopyrimidines and their use as AMPA receptor modulators” (Janssen Pharmaceutica NV, priority 2015, dated 2019).

Each compound was assayed against GluA1o-γ8 (GRIA1o-CACNG8 fusion construct; TARP γ8 dependent AMPA receptor) (Homo sapiens (Human), UniProt P42261+Q8WXS5) (assay: Calcium flux assay (FLIPR), inhibition of glutamate response of GluA1o-γ8 channel). Details: HEK293 cells stably expressing GRIA1o-CACNG8 fusion; 15 μM glutamate; pIC50 = negative log of IC50 in molar; read-out: GluR1-γ8 (pIC50) (converted).
Type: cell-based
Text: This assay was used to test compounds for their ability to inhibit TARP γ8 dependent AMPA receptor activity. The AMPA receptor is a non-selective cation channel activated by glutamate. Ionotropic glutamate receptors normally desensitize too rapidly to allow detectable calcium influx in a FLIPR assay (Strange et al. (2006). “Functional characterisation of homomeric ionotropic glutamate receptors GluR1-GluR6 in a fluorescence-based high throughput screening assay.” Comb Chem High Throughput Screen 9(2): 147-158). But, this desensitization is incomplete, and a substantial steady-state current remains in the sustained presence of glutamate (Cho et al. (2007). “Two families of TARP isoforms that have distinct effects on the kinetic properties of AMPA receptors and synaptic currents.” Neuron 55(6): 890-904).
An in vitro assay was used to determine the potency of test compounds as inhibitors of the glutamate response of the channel formed by GluA1o-γ8. To ensure a 1:1 stoichiometry of GluA10 and γ8 subunits in the expressed channel, a fusion of the cDNAs for GRIA1o and CACNG8 was used. Following Shi et al (2009) “The stoichiometry of AMPA receptors and TARPs varies by neuronal cell type.” Neuron 62(5): […]), the C-terminus of the cDNA for GRI1o was fused to the N-terminus of the cDNA for γ8. The linker sequence was […]. […] A clonal cell line in HEK293 cells stably expressing this construct, with a geneticin selection marker, was generated for use in this assay. Cell expressing the GRIA1o-CACNG8 fusion construct were grown in a monolayer in 96- or 384-well microtiter plates. They were washed with assay buffer (135 mM NaCl, 4 mM KCl, 3 mM CaCl2, 1 mM MgCl2, 5 mM glucose, 10 mM HEPES, pH 7.4, 300 mOs) using a Biotek EL405 plate washer. The cells were then loaded with a calcium-sensitive dye (Calcium-5 or Calcium-6, Molecular Devices) and the test compounds at a range of concentrations. Calcium flux following the addition of 15 μM glutamate was monitored using a Molecular Devices FLIPR Tetra.
The fluorescence in each well was normalized to the fluorescence of negative and positive control wells. […] The responses to glutamate as functions of the test compound concentrations were fitted to a four-parameter logistic function. The fitted parameter corresponding to the midpoint was taken to be the potency of inhibition of the compound.

GluA1o-γ8 (GRIA1o-CACNG8 fusion construct; TARP γ8 dependent AMPA receptor), sequence (P42261 other isoform, or with tags, fused parts or gaps): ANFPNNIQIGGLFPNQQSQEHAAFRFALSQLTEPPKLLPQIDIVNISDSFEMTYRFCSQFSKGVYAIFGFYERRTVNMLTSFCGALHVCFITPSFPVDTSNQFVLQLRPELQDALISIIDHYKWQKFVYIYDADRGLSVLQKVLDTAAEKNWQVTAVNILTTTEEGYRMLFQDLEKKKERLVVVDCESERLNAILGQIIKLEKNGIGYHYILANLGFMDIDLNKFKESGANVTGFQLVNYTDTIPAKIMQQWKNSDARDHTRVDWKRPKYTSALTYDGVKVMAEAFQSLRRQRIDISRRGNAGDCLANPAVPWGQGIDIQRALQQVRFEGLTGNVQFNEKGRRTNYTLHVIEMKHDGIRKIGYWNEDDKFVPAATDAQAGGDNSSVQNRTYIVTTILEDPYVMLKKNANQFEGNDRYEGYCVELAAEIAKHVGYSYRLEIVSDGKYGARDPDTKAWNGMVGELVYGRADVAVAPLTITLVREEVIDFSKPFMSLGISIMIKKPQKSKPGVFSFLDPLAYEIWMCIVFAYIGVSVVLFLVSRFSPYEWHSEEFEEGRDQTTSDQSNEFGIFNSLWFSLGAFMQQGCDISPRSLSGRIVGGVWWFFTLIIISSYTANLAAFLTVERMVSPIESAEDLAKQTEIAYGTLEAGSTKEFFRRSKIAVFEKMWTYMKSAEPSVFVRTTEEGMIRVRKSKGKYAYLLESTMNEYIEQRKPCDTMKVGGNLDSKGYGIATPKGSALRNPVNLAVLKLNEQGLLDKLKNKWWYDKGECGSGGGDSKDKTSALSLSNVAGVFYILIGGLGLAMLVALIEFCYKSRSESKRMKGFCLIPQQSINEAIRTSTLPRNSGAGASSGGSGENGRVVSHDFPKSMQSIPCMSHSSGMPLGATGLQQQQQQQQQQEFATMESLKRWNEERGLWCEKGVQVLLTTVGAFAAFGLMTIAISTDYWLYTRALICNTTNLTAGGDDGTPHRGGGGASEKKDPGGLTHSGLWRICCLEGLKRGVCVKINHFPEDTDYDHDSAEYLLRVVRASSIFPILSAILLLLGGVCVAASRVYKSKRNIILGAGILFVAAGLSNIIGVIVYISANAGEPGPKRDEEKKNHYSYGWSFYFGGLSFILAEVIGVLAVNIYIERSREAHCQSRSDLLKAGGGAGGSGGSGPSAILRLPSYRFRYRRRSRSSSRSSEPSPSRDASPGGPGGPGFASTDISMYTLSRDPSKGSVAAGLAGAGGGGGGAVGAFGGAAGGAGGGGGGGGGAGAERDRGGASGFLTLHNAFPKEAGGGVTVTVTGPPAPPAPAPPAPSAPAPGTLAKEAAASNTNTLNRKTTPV

IC50 [nM]	SMILES
5.01	O=C1Cc2cc(-c3c(-c4ccc(F)cc4)nc4c(N5CC6(COC6)C5)nccn34)ccc2N1 [Example 24, 5-[2-(4-Fluorophenyl)-8-(6-oxa-2-azaspiro[3.3]heptan-2-yl)imidazo[1,2-a]pyrazin-3-yl]indolin-2-one]
0.126	COC1CCN(c2nccn3c(-c4ccc5c(c4)CC(=O)N5)c(-c4ccc(F)cc4)nc23)CC1 [Example 72, 5-[2-(4-Fluorophenyl)-8-(4-methoxy-1-piperidyl)imidazo[1,2-a]pyrazin-3-yl]indolin-2-one]
7.94	O=C1Nc2ccc(-c3c(-c4ccc(F)cc4)nc4c(N5CCOCC5)nccn34)cc2CO1 [Example 124, 6-[2-(4-fluorophenyl)-8-morpholino-imidazo[1,2-a]pyrazin-3-yl]-1,4-dihydro-3,1-benzoxazin-2-one]
15.8	O=C1Cc2cc(-c3c(C4CCCC4)nc4c(N5CCOCC5)nccn34)ccc2N1 [Example 57, 5-(2-Cyclopentyl-8-morpholino-imidazo[1,2-a]pyrazin-3-yl)indolin-2-one]
3.16	CC(=O)N1CCN(c2nccn3c(-c4ccc(O)cc4)c(-c4ccc(Cl)cc4)nc23)CC1 [Example 94, 1-[4-[2-(4-Chlorophenyl)-3-(4-hydroxyphenyl)imidazo[1,2-a]pyrazin-8-yl]piperazin-1-yl]ethanone]
1.26	O=C1Cc2cc(-c3c(-c4ccccc4)nn4c(N5CC[C@@H](O)[C@@H](F)C5)nccc34)ccc2N1 (relative stereo) [Example 204, (cis)-5-[7-(3-Fluoro-4-hydroxy-1-piperidyl)-2-phenyl-pyrazolo[1,5-c]pyrimidin-3-yl]indolin-2-one]
3.98	CC(=O)N1CCN(c2nccn3c(-c4ccc5[nH]c(=O)[nH]c5c4)c(Cc4ccccc4)nc23)CC1 [Example 19, 5-[8-(4-Acetylpiperazin-1-yl)-2-benzyl-imidazo[1,2-a]pyrazin-3-yl]-1,3-dihydrobenzimidazol-2-one]
316	COC1CN(c2nccc3c(-c4ccc5c(c4)CC(=O)N5)c(C4CCCC4)nn23)C1 [Example 195, 5-[2-Cyclopentyl-7-(3-methoxyazetidin-1-yl)pyrazolo[1,5-c]pyrimidin-3-yl]indolin-2-one]
7.94	O=C1Cc2cc(-c3c(-c4ccc(F)cc4)nc4c(N5CCOC(C(F)(F)F)C5)nccn34)ccc2N1 (centres unmarked) [Example 42, 5-[2-(4-Fluorophenyl)-8-[2-(trifluoromethyl)morpholin-4-yl]imidazo[1,2-a]pyrazin-3-yl]indolin-2-one]
0.631	O=C1Cc2cc(-c3c(-c4ccc(F)cc4)nn4c(N5CCS(=O)(=O)CC5)nccc34)ccc2N1 [Example 170, 5-[7-(1,1-Dioxo-1,4-thiazinan-4-yl)-2-(4-fluorophenyl)pyrazolo[1,5-c]pyrimidin-3-yl]indolin-2-one]
0.501	O=C1Cc2cc(-c3c(-c4ccccc4)nn4c(N5CCC(F)CC5)nccc34)ccc2N1 [Example 188, 5-[7-(4-Fluoro-1-piperidyl)-2-phenyl-pyrazolo[1,5-c]pyrimidin-3-yl]indolin-2-one]
0.2	O=C1CN(c2nccn3c(-c4ccc5[nH]ncc5c4)c(-c4ccc(F)cc4)nc23)CCN1 [Example 33, 4-[2-(4-Fluorophenyl)-3-(1H-indazol-5-yl)imidazo[1,2-a]pyrazin-8-yl]piperazin-2-one]
31.6	O=C1Cc2cc(-c3c(C(=O)NCc4ccccc4)nc4c(N5CCOCC5)nccn34)ccc2N1 [Example 142, N-Benzyl-8-morpholino-3-(2-oxoindolin-5-yl)imidazo[1,2-a]pyrazine-2-carboxamide]
7.94	O=C1Cc2cc(-c3c(-c4ccccc4)nc4c(C5=CCOCC5)nccn34)ccc2N1 [Example 131, 5-(8-(3,6-Dihydro-2H-pyran-4-yl)-2-phenylimidazo[1,2-a]pyrazin-3-yl)indolin-2-one]
6310	O=C1Cc2cc(-c3c(C4CC4)nc4cnc(C(F)(F)F)cn34)ccc2N1 [Example 219, 5-[2-Cyclopropyl-6-(trifluoromethyl)imidazo[1,2-a]pyrazin-3-yl]indolin-2-one]
20	O=C(Nc1ccccc1)c1nc2c(N3CCOCC3)nccn2c1-c1ccc(O)cc1 [Example 138, 3-(4-Hydroxyphenyl)-8-morpholino-N-phenyl-imidazo[1,2-a]pyrazine-2-carboxamide]

IC50 [nM]	SMILES
0.398	O=C1Cc2cc(-c3c(-c4ccccc4)nn4c(N5CCOCC5)ncc(Br)c34)ccc2N1 [Example 207, 5-(4-Bromo-7-morpholino-2-phenyl-pyrazolo[1,5-c]pyrimidin-3-yl)indolin-2-one]
20	N#Cc1ccc(-c2nc3c(N4CCNC(=O)C4)nccn3c2-c2ccc3c(c2)CC(=O)N3)cc1 [Example 210, 4-[3-(2-Oxoindolin-5-yl)-8-(3-oxopiperazin-1-yl)imidazo[1,2-a]pyrazin-2-yl]benzonitrile]
25.1	Oc1ccc(-c2c(Cc3ccccc3)nc3c(N4CCOCC4)nccn23)cc1 [Example 15, 4-(2-Benzyl-8-morpholino-imidazo[1,2-a]pyrazin-3-yl)phenol]
1	c1ccc(Cc2nc3c(N4CCOCC4)nccn3c2-c2ccc3[nH]ncc3c2)cc1 [Example 21, 4-[2-Benzyl-3-(1H-indazol-5-yl)imidazo[1,2-a]pyrazin-8-yl]morpholine]
31.6	CC1(C)COCCN1c1nccn2c(-c3ccc4c(c3)CC(=O)N4)c(-c3ccc(F)cc3)nc12 [Example 50, 5-[8-(3,3-Dimethylmorpholin-4-yl)-2-(4-fluorophenyl)imidazo[1,2-a]pyrazin-3-yl]indolin-2-one]
79.4	COc1nccn2c(-c3ccc4c(c3)CC(=O)N4)c(-c3ccc(F)cc3)nc12 [Example 247, 5-[2-(4-Fluorophenyl)-8-methoxy-imidazo[1,2-a]pyrazin-3-yl]indolin-2-one]
158	CC(C)c1nn2c(N3CCOCC3)ncc(F)c2c1-c1ccc2[nH]ncc2c1 [Example 236, 4-[4-Fluoro-3-(1H-indazol-5-yl)-2-isopropyl-pyrazolo[1,5-c]pyrimidin-7-yl]morpholine]
31.6	O=C(Nc1ccccn1)c1nc2c(N3CCOCC3)nccn2c1-c1ccc2[nH]c(=O)[nH]c2c1 [Example 221, 8-Morpholino-3-(2-oxo-1,3-dihydrobenzimidazol-5-yl)-N-(2-pyridyl)imidazo[1,2-a]pyrazine-2-carboxamide]
0.0794	O=C1CCN(c2nccc3c(-c4ccc5c(c4)CC(=O)N5)c(-c4ccc(F)cc4)nn23)CC1 [Example 174, 5-[2-(4-Fluorophenyl)-7-(4-oxo-1-piperidyl)pyrazolo[1,5-c]pyrimidin-3-yl]indolin-2-one]
63.1	CC(C)(C)c1nn2c(N3CCOCC3)nccc2c1-c1ccc2c(c1)CC(=O)N2 [Example 182, 5-(2-tert-Butyl-7-morpholino-pyrazolo[1,5-c]pyrimidin-3-yl)indolin-2-one]
20	O=c1[nH]c2ccc(-c3c(-c4ccccc4)nn4cnc(C(F)(F)F)cc34)cc2s1 [Example 224, 6-[2-phenyl-5-(trifluoromethyl)pyrazolo[1,5-c]pyrimidin-3-yl]-3H-1,3-benzothiazol-2-one]
0.251	O=C1Cc2cc(-c3c(-c4ccc(F)cc4)nc4c(N5CCC(O)C(F)(F)C5)nccn34)ccc2N1 (centres unmarked) [Example 71, 5-[8-(3,3-Difluoro-4-hydroxy-1-piperidyl)-2-(4-fluorophenyl)imidazo[1,2-a]pyrazin-3-yl]indolin-2-one]
31.6	CC(=O)NC1CCN(c2nccn3c(-c4ccc(O)cc4)c(-c4ccc(Cl)cc4)nc23)CC1 [Example 93, N-[1-[2-(4-Chlorophenyl)-3-(4-hydroxyphenyl)imidazo[1,2-a]pyrazin-8-yl]-4-piperidyl]acetamide]
0.0631	COC1CCN(c2nccc3c(-c4ccc5[nH]c(=O)sc5c4)c(-c4ccccc4)nn23)CC1 [Example 213, 6-[7-(4-Methoxy-1-piperidyl)-2-phenyl-pyrazolo[1,5-c]pyrimidin-3-yl]-3H-1,3-benzothiazol-2-one]
3.16	Cc1cc2c(-c3ccc4c(c3)CC(=O)N4)c(-c3ccccc3)nn2c(N2CCOCC2)n1 [Example 198, 5-(5-Methyl-7-morpholino-2-phenyl-pyrazolo[1,5-c]pyrimidin-3-yl)indolin-2-one]
5.01	CC(=O)N1CCN(c2nccn3c(-c4ccc5c(c4)CC(=O)N5)c(C(=O)c4ccccc4)nc23)CC1 [Example 158, 5-[8-(4-Acetylpiperazin-1-yl)-2-benzoyl-imidazo[1,2-a]pyrazin-3-yl]indolin-2-one]
